In the NIST ThermoML archive (doi:10.1016/j.fluid.2008.03.004):

Test: xn = mol fraction of the nth substance listed
Details: 101 kPa, Liquid; for speed of sound: Sing-around technique in a fixed-path interferometer

Cc1cccc(C)c1 [1,3-dimethylbenzene] + COC(C)(C)C
Details	mass density, 305.65 K [kg/m3]	mass density, 308.15 K [kg/m3]	mass density, 310.65 K [kg/m3]	mass density, 313.15 K [kg/m3]	speed of sound, 308.15 K [m/s]	speed of sound, 310.65 K [m/s]	speed of sound, 313.15 K [m/s]	speed of sound, 315.65 K [m/s]
x2 = 0	853.441	851.282	849.122	846.958	1279.8	1269.6	1259.5	1249.3
x2 = 0.047	848.1	845.927	843.75	841.566	1267.6	1257.3	1247.2	1237
x2 = 0.115	840.172	837.974	835.768	833.56	1249.3	1239.1	1228.8	1218.6
x2 = 0.212	828.758	826.519	824.276	822.027	1222.5	1212.1	1201.8	1191.5
x2 = 0.304	817.815	815.538	813.255	810.966	1197.2	1186.8	1176.3	1165.9
x2 = 0.399	806.139	803.818	801.494	799.161	1170.3	1159.8	1149.3	1138.8
x2 = 0.5	793.525	791.157	788.781	786.398	1141.6	1130.9	1120.3	–
x2 = 0.601	780.692	778.273	775.847	773.412	1112	1101.1	1090.2	–
x2 = 0.651	774.141	771.692	769.237	766.771	1096.4	1085.5	1074.7	–
x2 = 0.794	755.009	752.457	749.912	747.356	1053.3	1042.3	1031.2	–
x2 = 0.898	740.889	738.286	735.671	733.042	1021.4	1010.1	998.84	–
x2 = 0.954	733.146	730.505	727.852	725.183	1004.8	993.4	981.87	–
